Patent publication US9320727B2, “Combinations of SGLT 2 inhibitors and antihypertensive drugs” (TAISHO PHARMACEUTICAL CO., LTD, priority 2012, dated 2016)

Columns and labels:
Format in all cases: in vivo, rat
T2DN rats [1] = assay: Diabetic nephropathy model (T2DN rats): blood pressure by tail cuff method; conditions: compound A 0.02% in mixed diet, lisinopril 10 mg/kg/day in drinking water, alone or combined, before and one month after dosing, FIG. 1
Protocol: (§1) The effect of compound A combined with ACE inhibitor in rats as a diabetic nephropathy model.
(§2) The test was conducted with rats (T2DN rats) that were an inbred line of Goto-Kakizaki (GK) rats with a manifestation of type II diabetes mellitus and which were in an advanced stage of kidney tissue injury resulting from a long-continued diabetic condition. Rats in groups each consisting of 8-9 animals (aged 14 months on average) were given repeated doses of compound A (0.02% in mixed diet) and the ACE inhibitor lisinopril (10 mg/kg/day in drinking water), either independently or in combination, for three months. A group of rats receiving only a diet containing no compound A were pathologic controls. Before and one month after the dosing, blood pressure measurement was conducted by the tail cuff method using a noninvasive automatic hemodynamometer. After the repeated dosing, the kidneys were removed from each rat under anesthetization with ketamine and thiobutabarbital and fixed in 10% neutral buffered formalin. Thin slices of the kidneys were prepared and subjected to Masson's trichrome stain. After masking the tissue specimens, thirty glomeruli were extracted from each specimen.
Blood pressure was expressed by the mean blood pressure as calculated from systolic and diastolic pressures ((systolic pressure−diastolic pressure)/3+diastolic pressure)).

T2DN rats [2] = assay: Diabetic nephropathy model (T2DN rats): glomerular injury score, Masson's trichrome stain; conditions: compound A 0.02% in mixed diet, lisinopril 10 mg/kg/day in drinking water, alone or combined, three months, grade 0-4, 30 glomeruli, FIG. 2
Protocol: as §1, §2

T2DN rats [3] = assay: Diabetic nephropathy model (T2DN rats): renocortical (interstitial) fibrosis area by image analyzer; conditions: compound A 0.02% in mixed diet, lisinopril 10 mg/kg/day in drinking water, alone or combined, three months, FIG. 3
Protocol: as §1, §2
To evaluate the morbidity of interstitial fibrosis, the fibrotic area percentage of 10 regions per specimen was calculated on an image analyzer.

Goto-Kakizaki (GK) rats = assay: Diabetic animal model (GK rats): systolic blood pressure by tail cuff method, crossover; conditions: GK rats on high-glucose diet; compound A in mixed diet, valsartan single oral dose, alone or combined; 1, 2, 4, 6 hours after administration; FIG. 4
Text: The effect of compound A combined with angiotensin II receptor blocker in rats as a diabetic model. Goto-Kakizaki (GK) rats as model animals spontaneously manifesting non-obese diabetes mellitus (Japan SLC, Inc.) were fed a high-glucose diet containing compound A. During the feeding of compound A in a mixed diet, a vehicle or an angiotensin II receptor blocker was orally administered in a single dose and the effects of the two drugs, administered either independently or in combination, on blood pressure were studied by the crossover method. The systolic blood pressure was measured by the tail cuff method using a non-heated, noninvasive hemodynamometer immediately before the oral administration of the angiotensin II receptor blocker and 1, 2, 4, and 6 hours after such administration.

Row | SMILES | blood pressure lowering action (mean blood pressure) (T2DN rats [1]) | glomerular injury score (improvement of scores of glomerular damage) (T2DN rats [2]) | renocortical fibrosis score (area of kidney interstitial fibrosis) (T2DN rats [3]) | action for lowering the systolic blood pressure (Goto-Kakizaki (GK) rats)
1 | CCOc1ccc(Cc2cc([C@@H]3S[C@H](CO)[C@@H](O)[C@H](O)[C@H]3O)c(OC)cc2C)cc1 [Compound A, (1S)-1,5-anhydro-1-[3-(4-ethoxybenzyl)-6-methoxy-4-methylphenyl]-1-thio-D-glucitol] | little blood pressure lowering action | effective in improving scores of glomerular damage | effective in ameliorating kidney tissue damage | little blood lowering action
2 | NCCCC[C@H](N[C@@H](CCc1ccccc1)C(=O)O)C(=O)N1CCC[C@H]1C(=O)O [Lisinopril, lisinopril] | a certain level of blood pressure lowering action | effective in improving scores of glomerular damage | no improvement in the area of interstitial fibrosis | 
3 | CCCCC(=O)N(Cc1ccc(-c2ccccc2-c2nnn[nH]2)cc1)[C@H](C(=O)O)C(C)C [Valsartan, valsartan] |  |  |  | a certain level of action for lowering the systolic blood pressure
